Experimental data: ChEMBL document CHEMBL1151097, “Phenyl-glycinol based NK1 receptor antagonists towards the minimum pharmacophore” (Bioorg Med Chem Lett, 1995)
Values belong to the molecule of their own block, whether it stands above or below them.

What was measured:
[1] = biological target: Substance-P receptor (Homo sapiens, UniProt P25103); test: Binding affinity to human Tachykinin receptor 1
[2] = biological target: Voltage-gated L-type calcium channel (Homo sapiens, UniProt Q13936+Q13698+Q01668+O60840); test: Inhibition of binding to L-type [Ca2+] channel; assay type: protein assay
[3] = pKa value was determined; assay type: physicochemical

Substance-P receptor, sequence (P25103 whole entry): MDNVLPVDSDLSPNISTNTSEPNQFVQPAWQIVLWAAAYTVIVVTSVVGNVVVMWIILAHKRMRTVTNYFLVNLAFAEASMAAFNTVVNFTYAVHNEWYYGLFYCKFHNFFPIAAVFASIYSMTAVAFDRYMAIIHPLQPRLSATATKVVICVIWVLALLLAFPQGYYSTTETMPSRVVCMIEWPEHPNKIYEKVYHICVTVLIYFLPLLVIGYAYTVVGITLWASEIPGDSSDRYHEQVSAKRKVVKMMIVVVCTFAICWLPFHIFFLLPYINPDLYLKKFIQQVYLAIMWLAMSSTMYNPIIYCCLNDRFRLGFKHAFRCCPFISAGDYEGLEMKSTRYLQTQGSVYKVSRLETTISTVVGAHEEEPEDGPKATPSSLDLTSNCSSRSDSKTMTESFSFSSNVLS

IC50 [1]: 8 nM
IC50 [2]: 2300 nM
Compound: NC(=O)CN[C@H](COCc1cc(C(F)(F)F)cc(C(F)(F)F)c1)c1ccccc1

IC50 [1]: 13 nM
IC50 [2]: 580 nM
pKa [3]: 7.93
Compound: N[C@H](COCc1cc(C(F)(F)F)cc(C(F)(F)F)c1)c1ccccc1

IC50 [1]: 95 nM
Compound: CC(OCc1cc(C(F)(F)F)cc(C(F)(F)F)c1)C(N)c1ccccc1 (single isomer, unassigned; diastereomer A)

IC50 [1]: 7 nM
Compound: CC(OCc1cc(C(F)(F)F)cc(C(F)(F)F)c1)C(N)c1ccccc1 (single isomer, unassigned; diastereomer B)

Second part, the molecule before the results:

Compound: Cc1cc(COC[C@@H](N)c2ccccc2)cc(C(C)(C)C)c1
IC50 [1]: 13.7 nM

Compound: CN(CC(N)=O)[C@H](COCc1cc(C(F)(F)F)cc(C(F)(F)F)c1)c1ccccc1
IC50 [1]: 5.8 nM
IC50 [2]: > 10000 nM

Compound: Cc1cc(Br)cc(COC[C@@H](N)c2ccccc2)c1
IC50 [1]: 20 nM

Compound: N[C@H](COCc1cc(Cl)cc(Cl)c1)c1ccccc1
IC50 [1]: 49 nM

Compound: CC(N)(COCc1cc(C(F)(F)F)cc(C(F)(F)F)c1)c1ccccc1 (stereo not given)
IC50 [1]: 30 nM

Compound: CC(OCC(N)c1ccccc1)c1cc(C(F)(F)F)cc(C(F)(F)F)c1 (stereo not given)
IC50 [1]: 4.3 nM

Compound: COc1cc(C)cc(COC[C@@H](N)c2ccccc2)c1
IC50 [1]: 135 nM
